In US8273719B2, “Wrinkle-diminishing agent” (Kao Corporation, priority 2004, dated 2012):

System: skin which had suffered from photoaging
Experiment: Wrinkle alleviating effect on photoaged (UVA/UVB irradiated) hairless mice: wrinkle score, dermis collagen content, epidermis thickness
Format: in vivo
From the text: The wrinkle alleviating effect of the antiwrinkle agent of the present invention when applied to a skin which had suffered from photoaging was examined by the following test method. A group of ten hairless mice which were ten weeks old at the start of the test was used. Photoaging was caused by irradiating the mice with UVA and UVB once a day and five times per week for continuous eight weeks. A UVA dose of 20 J/cm^2 was increased to 25 J/cm^2 and then 30 J/cm^2 every week, and a UVB dose of 20 mJ/cm^2 was increased to 30 mJ/cm^2 and then 40 mJ/cm^2 every week, and the respective maximum doses were used on and after the third week. The wrinkle alleviating effect was evaluated in respect of the wrinkle score, the dermis collagen content and the epidermis thickness. […] Specifically, the wrinkles were macroscopically evaluated with respect to the size and depth and rated in 4 stages: “large and deep wrinkles can be recognized” was rated 3, “some wrinkles can be recognized” was rated 2, “any wrinkles cannot be recognized” was rated 1, and “normal and fine skin is observed” was rated 0. Whole skin was sampled and homogenized by a POLYTRON Homogenizer (manufactured by KINEMATICA AG), and then the collagen fraction was extracted and subjected to acid hydrolysis followed by quantitative determination of a hydroxyproline content using an amino acid analyzer (manufactured by JASCO Corporation). […]

| Compound | Wrinkle alleviating effect on the wrinkles caused by the photoaging (overall conclusion in words) | Epidermis thickness, effect compared to Comparative Example 1 (base only) (result in words) |
| --- | --- | --- |
| C=CCc1ccc(O)c(OC)c1 [eugenol] | does not have a wrinkle alleviating effect | – |
| C=CCc1ccc(O[C@@H]2O[C@H](CO)[C@@H](O)[C@H](O)[C@H]2O)c(OC)c1 [eugenyl glycoside, eugenyl-β-D-glucoside] | – | had no such an action |
